# Measurements from US20120015939A1, “TOPICAL TREATMENT OF NEUROPATHIC PAIN AND METHODS OF DIAGNOSIS” (Arcion Therapeutics, Inc., priority 2010, published 2012).
# Read-outs that look alike come from different tables or passages of the source.
# Columns and labels:
# [1] = system: painful diabetic neuropathy; details: cited from earlier work
# [2] = clinical; details: human, in vivo
# Source text: In study CLO-027, blood samples for PK analysis were obtained at baseline, and at Weeks 2 and 12 of treatment.
# [3] = in vivo; cited from earlier work
# [4] = topical 0.1% and 0.2% clonidine
# Protocol: The dosage formulation is administered from once a day to several times a day, depending on the patient. […] The dose is determined by the region of pain. […] The area treated is constrained by the systemic dosing.
# [5] = system: pain associated with painful diabetic neuropathy (PDN)
# Protocol: Pain was assessed each day using a pain diary using a standardized numerical pain rating scale (NPRS). The average pain for each week was calculated and the difference from baseline was determined (week x minus baseline). […] The baseline pain scores were imputed for missing data arising from premature withdrawal from the study (BOCF, baseline observation carried forward).
# Capsaicin 0.1% was applied to the pretibial area between the knee and ankle in each patient. The area was occluded for 30 minutes, at which time patients rated the painfulness of the capsaicin stimulus. It was reasoned that in patients with PDN that the afferented group would detect and rate the capsaicin stimulus as painful, while the deafferented group would fail to detect the stimulus.
# [6] = system: painful diabetic neuropathy; details: systemic clonidine by transdermal patches; cross-over; cited from earlier work
smiles,measurement,setting,value
Clc1cccc(Cl)c1N=C1NCCN1 [clonidine],Pain reduction relative to placebo,"[1]; responders rechallenged at highest patch dosage, p<0.015",modest although statistically significant
same,Patients considered clonidine responders,[1]; twelve of forty-one patients who completed the initial course of treatment,29%
same,concentration at 2 weeks,[2],0.017 ng/mL
same,concentration at 12 weeks,[2],0.019 ng/mL
same,Lower threshold blood level considered necessary to treat hypertension,[3],0.200 ng/mL
same,Mean blood level,[4],below 0.1 ng/mg
same,Patients with no detectable clonidine in the blood,[4],one third of patients had no detectable clonidine in the blood
same,Efficacy over placebo in relieving diabetic pain (change in NPRS over time),"[5]; capsaicin pain rating of two or more, 0 to 10 scale (FIG. 4C)",significantly superior to placebo
same,Efficacy over placebo in relieving diabetic pain (change in NPRS over time),[5]; patients who did not detect the capsaicin stimulus (FIG. 4A),no efficacy over placebo
same,Efficacy over placebo in relieving diabetic pain (change in NPRS over time),"[5]; subjects who detected capsaicin, pain rating > 0 (FIG. 4B)",significantly superior to placebo
same,Difference in pain between clonidine patches and placebo patches,[6],no statistically significant difference
